# Source: patent US11484608B2, “Non-invasive assessment of hepatic mitochondrial metabolism by positional isotopomer NMR tracer analysis (PINTA)” (YALE UNIVERSITY, priority 2017, dated 2022)
# System: hepatic mitochondrial fluxes (VPC, VCS)
# Experiment: PINTA / ex vivo NMR tracer study in rats infused with [3-^13C]lactate and [3-^3H]glucose (Example 1)
# Details: 120 min [3-^13C]lactate infusion, mean ± S.E.M.
# Description: Male Sprague-Dawley rats (˜10 weeks of age) were ordered from Charles River (Wilmington, Mass.) at ˜300 g and fed regular chow unless otherwise specified. […] Prior to studies, rats underwent surgery under general isoflurane anesthesia to place polyethylene catheters in the jugular vein and common carotid artery (PE90 and PE50 tubing, respectively; Instech, Plymouth Meeting, Pa.). After 1 week, recovery was verified by confirming that the rats had regained their surgical weight. Unless otherwise specified, all experiments were performed following an overnight fast (16 hrs food withdrawal prior to sacrifice). In both the rodent and human studies, data are represented as the mean of two technical replicates for each subject (i.e. two technical replicates per biological replicate). Sample sizes were selected to give power to detect moderate to large differences between groups (n=5-6 per group), and all animals were included in the final analysis.
# The investigator performing the animal studies was not blinded for practical reasons, but the investigators analyzing fluxes were blinded as to the group allocation.
# The flux calculations required the following equations using [^13C] glucose positional enrichment in plasma or liver, determined by NMR and GC/MS mass spectrometry. VPC is the rate of pyruvate carboxylase flux as determined from the anaplerotic flow into oxaloacetate (OAA). VCS is defined as the flux of the citrate synthase reaction in the citric acid cycle. […] G2 denotes [m+2] glucose arising from the condensation of two singly-labeled trioses.
# GC/MS was used to measure m+1 and m+2 [^13C]glucose enrichment. The total m+1 and m+2 [^13C]glucose enrichment was measured using a pentaacetate derivative: plasma or liver samples were deproteinized using 5 volumes of methanol, dried, and derivatized with 75 μL of 1:1 acetic anhydride:pyridine. After heating to 65° C. for 20 min, the reaction was terminated by adding 25 μL methanol, and m+1 and m+2 (as well as m+3 . . . m+6) were determined by GC/MS (CI mode, m/z 331 [m], 332 [m+1], 333 [m+2], . . . 337 [m+6]). The m+1 and m+2 [^13C] enrichments of the glucose C4C5C6 fragment were determined by generating the aldonitrile pentapropionate derivative: plasma or NMR liver extract samples were dried under N2 gas, and 50 μl hydroxylamine hydrochloride (20 mg/ml in pyridine) were added. The samples were heated at 90° C. for 60 min, then 100 μl propionic anhydride was added, after which the samples were heated at 60° C. for 30 min. Finally, the samples were evaporated under N2 gas, resuspended in ethyl acetate, and the m+1 and m+2 enrichment of the glucose C4C5C6 fragment was measured by GC/MS.
# [^13C]alanine enrichment was measured by GC/MS. [^13C] NMR spectroscopy using the BRUKER TOPSPIN® system was utilized to measure relative positional 13C-enrichment of glucose, and combined with the total [^13C]glucose enrichment ([m+1]+2*[m+2]) measured by GC/MS to calculate the positional enrichment of [13C]glucose.
# Total [^13C]glutamate enrichment was determined by LC-MS/MS. Approximately 100 mg of liver tissue was weighed out and homogenized in 500 μl ice-cold methanol using a TissueLyser, then centrifuged at 4000 rpm for 10 minutes. The supernatant was then purified by centrifugation (4000 rpm, 10 min) through the PALL NANOSEP® filter (100K) (Port Washington, N.Y.). Glutamate 13C enrichment ([m+1], [m+2]) was then assessed by LC-MS/MS using an AB SCIEX QTRAP 6500 (Framingham, Mass.), equipped with a SHIMADZU ultra-fast liquid chromatography (UFLC) system (Columbia, Md.) and electrospray ionization (ESI) source with negative-ion detection. The measured ion pairs were 146/128 (m0), 147/129 (m+1), and 148/130 (m+2).
# Positional enrichment of glucose, glutamate, and alanine was measured by 13C NMR.
substance,measurement,setting,value
glucagon,VPDH/VCS (%),rat liver,2.7 ± 0.1%
same,VPK+ME/VPC+PDH (%),rat liver,<2%
same,VPC/VEGP (%),rats,65 ± 3%
